Measured values published in publication PMC6435698, “Keggin-type polyoxotungstates as mushroom tyrosinase inhibitors - A speciation study” (Scientific Reports, 2019).
Read-outs that look alike come from different tables or passages of the source.

Key:
[1] = biological target: T1, abPPO4 (mushroom tyrosinase) (Agaricus bisporus, UniProt C7FF05); experiment: dopachrome assay, inhibition of abPPO4 diphenolase activity; format: biochemical; conditions: for inhibitory effect on abPPO4 activity (in words): activity plots; for Inhibition type: substrate L-DOPA; for α, inhibition parameter, from Lineweaver-Burk intercepts: [b] from Lineweaver-Burk intercepts; on Ki [mM], from Dixon plots: L-DOPA 0.4–1.5 mM; on Ki [mM], from Lineweaver-Burk slopes: L-DOPA 0.4–1.5 mM
T1 construct: glutathione-S-transferase (GST) (N, cleaved yes); made in house; host or cells: E. coli BL21(DE3)
T1 sequence (C7FF05 1-379 limits assumed): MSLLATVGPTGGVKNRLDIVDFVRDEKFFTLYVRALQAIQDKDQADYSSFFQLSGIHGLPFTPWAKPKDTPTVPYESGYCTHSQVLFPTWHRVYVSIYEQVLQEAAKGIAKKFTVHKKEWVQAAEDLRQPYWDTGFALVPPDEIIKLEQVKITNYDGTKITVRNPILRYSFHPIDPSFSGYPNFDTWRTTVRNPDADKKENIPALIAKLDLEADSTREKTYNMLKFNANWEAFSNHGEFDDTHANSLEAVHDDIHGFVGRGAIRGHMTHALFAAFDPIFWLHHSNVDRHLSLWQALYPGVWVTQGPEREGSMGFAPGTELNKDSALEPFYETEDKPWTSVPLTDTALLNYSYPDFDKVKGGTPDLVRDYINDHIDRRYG
Description: The detailed methodology applied for kinetic evaluation is presented in the SI.
For the activity plots shown here, the ratios of reaction rates v ([I] = 0] and vapp ([I] = 0.2–14 mM) were determined from UV absorption measurements at 475 nm using the dopachrome assay. Each reaction setup contained a fixed amount of enzyme (1 µg abPPO4) in 1 mL in a plastic cuvette and the reaction buffer was 50 mM Na-citrate pH 6.8. POT stock solutions were prepared in 20 mM concentration in reaction buffer and adjusted for pH 6.8 with NaOH, if necessary. The reaction rates were extracted from the obtained absorption curves as the slope of linear fits of the steepest curve sections close to the start of the reaction over a time-range of 30 s and were determined in triplicates. The relative enzymatic activity dependent on the inhibitor concentration was fitted to a suitable hyperbolic expression (see SI for details). […] The dopachrome assay was performed exactly as described in section 3.1.1. This time, the observed reaction velocities vapp (in µmol/min) were calculated from the extracted reaction rates (in 1/s) using the extinction coefficient of dopachrome ε = 3700 M^−1 cm^−1 [62]. The so obtained data was plotted according to Lineweaver-Burk, and the slopes and ordinate intercepts of these graphs were used to extract inhibition parameters.
(The kinetic models with according mathematical expressions applied in this study are based on Copeland’s guide for enzyme kinetics[28].)
The classical Michaelis-Menten equation[28] relates the velocity v of an enzymatic reaction to the applied substrate concentration [S]:
In this equation, the Michaelis constant KM represents the substrate concentration effecting the half-maximum reaction rate vmax.
For the reported inhibition studies, we chose an expanded version of this equation (1) which accounts for all possible inhibition mechanisms and combinations thereof[28]. In general, both […]
ݒ௠௔௫,௔௣௣ = ௩೘ೌೣଵା [಺] (2)
Herein, [I] refers to the inhibitor concentration, Ki is the inhibition constant measuring the […]
The three ideal inhibition types are reflected by three limiting conditions for α:
(A) 0 < α <<1: uncompetitive inhibition
(B) α = 1: non-competitive inhibition
(C) α >> 1: competitive inhibition
Therefore, values of α < 1 often correspond to mixed-type inhibition with contributions from uncompetitive and non-competitive inhibition modes.
Insertion of expressions (2) and (3) in equation (1) leads to the final mixed-type inhibition […]
The relative enzymatic activity upon inhibition can be expressed as the ratio of the observed reaction velocity v app to the non - inhibited reaction performance v through dividing equation […]
This corresponds to a normalization of the reaction rates with respect to the non - inhibited rate. As w e were interested in the dependence of the reaction velocity on the inhibitor concentration , the substrate concentration was fixed to 1 mM L - DOPA for all activity plots.
This led to a further simplification of equation ( 1 ) : […]
Equation (6) was used as the final curve fit expression for kinetic evaluation of those POM […]
K M was set to 26.1 mM as reported for ab PPO4 by
3.2 Determination of inhibition type
3.2. 1 Kinetic evaluation using Lineweaver - Burk plots […]
linear Lineweaver - Burk [ 29 ] extrapolations. The double - reciprocal plots of 1/ v app against 1/[S] yielded straight li nes that were fitted accordingly to the corresponding ly rearranged form of […]
For simplicity, the terms for the slope m and the ordinate shift t are co mbine d in constants in […]

[2] = speciation / hydrolytic stability of POTs at pH 6.8 by 183W NMR; format: physicochemical; conditions: 183W NMR (and 31P, 27Al NMR), ca. 20 mM in 50 mM Na-citrate pH 6.8
Description: ^183W NMR spectroscopy is the most widely applied and reliable technique for the structural characterization of POTs in solution as well as to monitor the progress of reaction. Hundreds of POM ^183W NMR spectra have been reported since the first ^183W NMR spectrum for [SiW11]^8− observed by Acerete et al. in[47]. The here-presented ^183W NMR analysis yielded a single signal for all intact [XW12]^n− structures (Figs 4A,D and S11–S14), reflecting the perfect tetrahedral symmetry of the Keggin α-isomer and clearly confirming the isomeric purity of the prepared POTs.
^183W NMR samples for all the POM compounds were prepared in high concentrations similar to the stock solutions used for kinetic experiments (usually about 20 mM) in 50 mM Na-citrate pH 6.8 if not stated otherwise. ^183W NMR spectra were recorded with a Bruker FT-NMR spectrometer Avance Neo 500 MHz in 10 mm tubes for a total experiment time of ca. 60 hours, using standard pulse programs at 20.836 MHz and a 63° flip angle with 1 s of relaxation delay; the temperature was kept at 25 °C. Chemical shifts were measured relative to external 1 M Na2WO4. For [PW12]^3−, [PW11]^7− and […], additional ^31P NMR spectra were taken, structures of [AlW12]^5−, [AlW11]^9− and [BeW12]^6− were confirmed by ^27Al NMR or ^9Be NMR spectroscopy, respectively. ^27Al, ^9Be and ^31P NMR spectra were recorded at 130.368, 70.273 and 202.53 MHz, respectively. Chemical shifts are given relative to Al(NO3)3, BeSO4 or 85% H3PO4.
In the ^183W NMR spectrum of [PW12]^3− at pH 6.8 (see Fig. 4E), the six most intense peaks can be assigned to six different symmetry-equivalent positions in [PW11]^7−[47],[49]. The less intense signals in the ^183W NMR spectrum can be attributed to other [PW12]^3− hydrolysis products[51] that have been identified in the ^31P NMR spectrum (Fig. S7B). […] Based on both spectra, it can be concluded that [PW11]^7− prevails in aqueous solution at pH 6.8. […] Assignment is complicated by the special pseudo-paramagnetic character of this cluster (see ^183W NMR analysis in Fig. S15, SI section 2.2.2.4).
In order to identify the tungstate species responsible for the inhibitory effect observed with the orthotungstate solution [WO4]^2−, ^183W NMR was performed in reaction buffer pH 6.8, which had to be readjusted by a few drops of 5 M HCl to compensate for the marked basicity of [WO4]^2−. […] The chemical shifts are in agreement with literature data[56]. […] The ^183W NMR spectra for the POT clusters with higher negative charges (see Figs S11–S14) show only one single signal, thereby confirming full structural integrity of the corresponding Keggin anions at pH 6.8. The lacunary cluster [AlW11]^9− evoked a rise in pH up to 8.5 upon dissolution in reaction buffer (pH 6.8) to reach a final concentration of 20 mM. […] In the [BeW12]^6− spectrum (Fig. S14), three additional signals at −147.6, −155.3 and −168.6 ppm can be seen, which were assigned to the β-Keggin isomer. The C3v symmetry of this isomer results in three shifts with intensity ratio 1:2:1, as previously observed for other β-isomers of Keggin structure. The β-isomer is commonly formed during any synthesis of Keggin clusters, but rearranged to the α-form during prolonged thermal reaction. Thus, the occurrence of the β-form in the present preparation can be ascribed to the reduced reaction time applied for the hydrothermal synthesis. […] The ^31P (cf. Fig. S8) and ^183W NMR (Fig. S15) spectra of [PW11Ni]^5− have a special character originating from the peculiar electronic configuration of Ni^2+ and were in general accordance with reference data[61]. In the presented ^183W NMR spectrum, signals from those W atoms in direct neighbourhood to the Ni^2+ center cannot be observed, which complicates unambiguous assignment to the desired substituted POT structure. However, the obtained results can be explained in the light of electronic effects. […]

mushroom tyrosinase = conditions: substrate L-DOPA; cited from earlier work
[3] = tested on: Bacillus megaterium tyrosinase; set-up: method as in PMID 27725765; conditions: substrate L-DOPA; cited from earlier work
[4] = expected from net charge; cited from earlier work
[5] = [a] from activity plot, 1 mM L-DOPA, 50 mM Na-citrate pH 6.8, 0–14 mM POT
[6] = [a] from activity plot, 1 mM L-DOPA, 50 mM Na-citrate pH 6.8, 0–14 mM POT, read-out: Ki [mM], from activity plot
[7] = [a] from activity plot, 1 mM L-DOPA, pH 6.8
[8] = [b] from Lineweaver-Burk slopes, L-DOPA 0.4–[…], pH 6.8, read-out: Ki [mM], from Lineweaver-Burk slopes
[9] = [c] from Dixon plots, average intersection, L-DOPA 0.4–[…], pH 6.8, read-out: Ki [mM], from Dixon plots

| Molecule | Ki [mM], from activity plot [1, 5] | inhibitory effect on abPPO4 activity (in words) ([1]; 1 mM L-DOPA, pH 6.8) | Inhibition type ([1]; pH 6.8) | Ki [1, 6] [mM] | α, inhibition parameter, from activity plot [1, 7] | α, inhibition parameter, from Lineweaver-Burk intercepts ([1]; pH 6.8) | structural integrity / hydrolysis at pH 6.8 [2] | also measured |
| --- | --- | --- | --- | --- | --- | --- | --- | --- |
| O=[N+]([O-])[O-].O=[N+]([O-])[O-].[Ni+2] [Ni^2+, Ni(NO3)2, reference compound] | No inhibition | no inhibition effect | No inhibition | – | – | – | – | – |
| [Na+].[Na+].[O]=[W](=[O])([O-])[O-] [[WO4]^2−, Na2WO4, reference compound] | – | – | Mixed-type | 20 | 0.14 | 0.03 | no detectable residual free orthotungstate | Ki [1, 8]: 19 mM; Ki [1, 9]: 24.8 mM |
| O=c1cc(CO)occ1O [kojic acid] | – | – | – | – | – | – | – | inhibition mode (mushroom tyrosinase): competitive; inhibition mode [3]: mixed-type |
| K5[BW12O40] [[BW12]^5−] | No inhibition | – | No inhibition | – | – | – | retain full structural integrity | – |
| K5[PW11O39{Ni(H2O)}] [[PW11Ni]^5−] | – | pronounced inhibition | Mixed-type | 9.7 | 0.12 | 0.20 | – | Ki [1, 8]: 14.3 mM; Ki [1, 9]: 15 mM |
| K7[PW11O39] [[PW11]^7−] | – | inhibitory effect of intermediate capacity | Mixed-type | 12 | 0.12 | 0.17 | – | Ki [1, 8]: 9.9 mM; Ki [1, 9]: 9.9 mM |
| Na5[AlW12O40] [[AlW12]^5−] | No inhibition | – | No inhibition | – | – | – | retain full structural integrity | – |
| Na6[BeW12O40] [[BeW12]^6−] | No inhibition | – | No inhibition | – | – | – | retain full structural integrity | stability in aqueous buffers up to pH [4]: ≤ 9 pH |
| Na6[H2W12O40] [[H2W12]^6−] | No inhibition | – | No inhibition | – | – | – | retain full structural integrity | – |
| Na9[AlW11O39] [[AlW11]^9−] | – | weak inhibitory capacity | Mixed-type | – | 0.12 | 0.31 | not stable | – |
| [AlW11O39{Al(H2O)}]^6− | – | weak inhibition effects | – | 54.1 | – | – | – | – |

The next lines start with results.

| Ki [mM], from activity plot [1, 5] | inhibitory effect on abPPO4 activity (in words) ([1]; 1 mM L-DOPA, pH 6.8) | Inhibition type ([1]; pH 6.8) | Ki [1, 6] [mM] | α, inhibition parameter, from activity plot [1, 7] | α, inhibition parameter, from Lineweaver-Burk intercepts ([1]; pH 6.8) | structural integrity / hydrolysis at pH 6.8 [2] | Molecule | also measured |
| --- | --- | --- | --- | --- | --- | --- | --- | --- |
| – | measurable inhibition effects | – | – | – | – | – | H[W7O24]^5− [heptatungstate] | – |
| – | most potent inhibitory effect | Mixed-type | 4.7 | 0.11 | 0.32 | partial hydrolysis | K4[SiW12O40] [[SiW12]^4−] | Ki [1, 8]: 3.8 mM; Ki [1, 9]: 5.6 mM |
| No inhibition | no enzymatic inhibition | No inhibition | – | – | – | – | K8[SiW11O39] [[SiW11]^8−] | inhibitory effect on abPPO4 activity (in words) ([1]; 1 mM L-DOPA, pH 6.8, listed as Hx[SiW11O39]^(8−x)−): ineffective |
| – | markedly lower inhibition capacity | Mixed-type | – | 0.13 | 0.20 | full hydrolysis | Na3[PW12O40] [[PW12]^3−] | – |
